Experimental data published in patent publication US20080089844A1 (priority 2002, published 2008).
Entries after “also recorded” stand apart in the source; their conditions may differ. Like-named read-outs stand apart in the source and are kept apart here.

Legend:
Kv4.2 = Kv4.2 (Homo sapiens, UniProt Q9NZV8); conditions: cited from earlier work
Kv1.3 = Kv1.3 (Homo sapiens, UniProt P22001); conditions: cited from earlier work
[1] = test system: primary cultures of myocytes; assay type: cell-based, rat
[2] = test system: cardiac ventricular myocytes; assay type: cell-based, rat
herg = herg (Homo sapiens, UniProt Q12809); conditions: cited from earlier work
[3] = test system: New Zealand White rabbits; conditions: rabbit, in vivo
[4] = rat, in vivo, iv
[5] = test system: trout Shaker homolog (Sha1); conditions: cited from earlier work
Kv1.1 = Kv1.1 (Homo sapiens, UniProt Q09470); conditions: cited from earlier work
[6] = test system: ventricular myocyte, cortex and trachea primary cultures; assay type: cell-based, rat
Kv2.1 = Kv2.1 (Homo sapiens, UniProt Q14721); conditions: cited from earlier work
F425G Shaker mutation = F425G Shaker mutation (Drosophila melanogaster, UniProt P08510, F425G); conditions: cited from earlier work
Chain of F425G Shaker mutation (P08510 whole entry F425G, looked up): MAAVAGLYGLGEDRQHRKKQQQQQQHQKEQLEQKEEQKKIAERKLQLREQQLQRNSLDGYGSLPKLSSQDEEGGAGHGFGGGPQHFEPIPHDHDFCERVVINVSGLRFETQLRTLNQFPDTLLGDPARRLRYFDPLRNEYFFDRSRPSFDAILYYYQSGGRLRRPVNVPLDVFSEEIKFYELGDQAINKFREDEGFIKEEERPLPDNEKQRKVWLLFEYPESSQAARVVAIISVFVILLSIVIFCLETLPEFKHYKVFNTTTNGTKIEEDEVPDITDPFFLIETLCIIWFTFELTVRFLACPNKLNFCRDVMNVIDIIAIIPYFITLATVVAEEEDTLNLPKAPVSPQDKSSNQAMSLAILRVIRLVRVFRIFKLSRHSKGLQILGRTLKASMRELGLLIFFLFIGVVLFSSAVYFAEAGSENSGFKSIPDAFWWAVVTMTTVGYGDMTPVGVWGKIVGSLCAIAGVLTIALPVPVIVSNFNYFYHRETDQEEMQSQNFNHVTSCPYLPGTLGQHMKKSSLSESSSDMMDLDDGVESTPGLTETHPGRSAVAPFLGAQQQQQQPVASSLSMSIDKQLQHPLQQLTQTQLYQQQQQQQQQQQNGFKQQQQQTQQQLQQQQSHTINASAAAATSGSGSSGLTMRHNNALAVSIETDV

Kv1.4 = Kv1.4 (Homo sapiens, UniProt P22459); conditions: cited from earlier work
Kv3.4 = Kv3.4 (Homo sapiens, UniProt Q03721); conditions: cited from earlier work
Shaker potassium channel = Shaker potassium channel (Drosophila melanogaster, UniProt P08510); conditions: cited from earlier work
Chain of Shaker potassium channel (P08510 whole entry, looked up): as the sequence (P08510 whole entry F425G, looked up) above, with G425F counted along it

eag = eag (Homo sapiens, UniProt O95259); conditions: cited from earlier work
Nav1.5 = Nav1.5 (Homo sapiens, UniProt Q14524); conditions: cited from earlier work
Chain of Nav1.5 (Q14524 whole entry, looked up): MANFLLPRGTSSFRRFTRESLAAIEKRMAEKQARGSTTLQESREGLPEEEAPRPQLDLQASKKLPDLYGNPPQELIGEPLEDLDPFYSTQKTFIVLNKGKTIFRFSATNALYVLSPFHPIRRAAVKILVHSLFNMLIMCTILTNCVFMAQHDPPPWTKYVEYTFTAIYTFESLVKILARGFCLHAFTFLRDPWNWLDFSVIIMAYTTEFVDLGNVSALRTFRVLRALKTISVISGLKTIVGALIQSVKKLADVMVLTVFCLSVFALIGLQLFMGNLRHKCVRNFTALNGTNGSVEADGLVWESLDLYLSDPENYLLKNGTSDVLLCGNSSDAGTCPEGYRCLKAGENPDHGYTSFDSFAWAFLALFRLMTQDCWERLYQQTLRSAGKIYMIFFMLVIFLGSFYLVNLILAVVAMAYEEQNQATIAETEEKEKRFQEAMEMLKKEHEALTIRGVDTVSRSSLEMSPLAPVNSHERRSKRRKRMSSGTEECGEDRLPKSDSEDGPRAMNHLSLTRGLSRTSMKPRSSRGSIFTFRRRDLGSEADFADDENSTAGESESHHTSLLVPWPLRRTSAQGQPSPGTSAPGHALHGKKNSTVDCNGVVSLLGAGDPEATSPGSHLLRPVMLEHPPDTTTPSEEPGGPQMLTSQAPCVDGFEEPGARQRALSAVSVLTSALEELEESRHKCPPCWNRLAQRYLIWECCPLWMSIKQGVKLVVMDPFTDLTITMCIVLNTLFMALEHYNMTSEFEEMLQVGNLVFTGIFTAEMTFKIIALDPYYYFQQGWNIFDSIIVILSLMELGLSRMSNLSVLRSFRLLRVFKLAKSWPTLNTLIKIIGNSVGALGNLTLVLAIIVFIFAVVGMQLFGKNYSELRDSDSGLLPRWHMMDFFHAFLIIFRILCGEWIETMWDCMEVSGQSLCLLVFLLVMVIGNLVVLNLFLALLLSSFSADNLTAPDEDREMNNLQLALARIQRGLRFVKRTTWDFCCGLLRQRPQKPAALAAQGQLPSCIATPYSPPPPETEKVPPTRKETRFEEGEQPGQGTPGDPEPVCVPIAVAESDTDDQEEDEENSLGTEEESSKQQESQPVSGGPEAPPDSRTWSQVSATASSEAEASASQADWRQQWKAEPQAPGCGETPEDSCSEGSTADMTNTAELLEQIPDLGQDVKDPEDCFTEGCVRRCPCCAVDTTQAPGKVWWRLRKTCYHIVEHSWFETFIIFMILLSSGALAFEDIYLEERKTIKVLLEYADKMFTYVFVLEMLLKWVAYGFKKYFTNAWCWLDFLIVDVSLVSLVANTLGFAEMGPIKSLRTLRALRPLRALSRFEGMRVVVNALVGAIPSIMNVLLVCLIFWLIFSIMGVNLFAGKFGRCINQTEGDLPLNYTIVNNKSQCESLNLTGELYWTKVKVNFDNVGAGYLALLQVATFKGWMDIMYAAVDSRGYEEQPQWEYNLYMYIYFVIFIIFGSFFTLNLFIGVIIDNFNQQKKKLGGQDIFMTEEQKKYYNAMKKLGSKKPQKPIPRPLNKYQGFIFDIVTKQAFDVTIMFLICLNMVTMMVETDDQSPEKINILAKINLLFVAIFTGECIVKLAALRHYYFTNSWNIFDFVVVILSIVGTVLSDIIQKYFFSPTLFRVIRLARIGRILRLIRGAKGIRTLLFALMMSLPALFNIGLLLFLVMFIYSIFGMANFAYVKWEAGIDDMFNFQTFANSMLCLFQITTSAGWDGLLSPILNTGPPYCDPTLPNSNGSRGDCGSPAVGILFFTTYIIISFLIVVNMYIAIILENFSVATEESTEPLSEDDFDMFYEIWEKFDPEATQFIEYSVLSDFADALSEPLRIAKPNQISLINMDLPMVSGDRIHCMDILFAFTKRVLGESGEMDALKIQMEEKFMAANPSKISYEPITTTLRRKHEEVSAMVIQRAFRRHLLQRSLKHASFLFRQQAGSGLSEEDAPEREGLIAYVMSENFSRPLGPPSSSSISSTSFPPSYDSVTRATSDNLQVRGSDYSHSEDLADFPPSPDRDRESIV

Nav1.2 = Nav1.2 (Homo sapiens, UniProt Q99250); conditions: cited from earlier work
Chain of Nav1.2 (Q99250 whole entry, looked up): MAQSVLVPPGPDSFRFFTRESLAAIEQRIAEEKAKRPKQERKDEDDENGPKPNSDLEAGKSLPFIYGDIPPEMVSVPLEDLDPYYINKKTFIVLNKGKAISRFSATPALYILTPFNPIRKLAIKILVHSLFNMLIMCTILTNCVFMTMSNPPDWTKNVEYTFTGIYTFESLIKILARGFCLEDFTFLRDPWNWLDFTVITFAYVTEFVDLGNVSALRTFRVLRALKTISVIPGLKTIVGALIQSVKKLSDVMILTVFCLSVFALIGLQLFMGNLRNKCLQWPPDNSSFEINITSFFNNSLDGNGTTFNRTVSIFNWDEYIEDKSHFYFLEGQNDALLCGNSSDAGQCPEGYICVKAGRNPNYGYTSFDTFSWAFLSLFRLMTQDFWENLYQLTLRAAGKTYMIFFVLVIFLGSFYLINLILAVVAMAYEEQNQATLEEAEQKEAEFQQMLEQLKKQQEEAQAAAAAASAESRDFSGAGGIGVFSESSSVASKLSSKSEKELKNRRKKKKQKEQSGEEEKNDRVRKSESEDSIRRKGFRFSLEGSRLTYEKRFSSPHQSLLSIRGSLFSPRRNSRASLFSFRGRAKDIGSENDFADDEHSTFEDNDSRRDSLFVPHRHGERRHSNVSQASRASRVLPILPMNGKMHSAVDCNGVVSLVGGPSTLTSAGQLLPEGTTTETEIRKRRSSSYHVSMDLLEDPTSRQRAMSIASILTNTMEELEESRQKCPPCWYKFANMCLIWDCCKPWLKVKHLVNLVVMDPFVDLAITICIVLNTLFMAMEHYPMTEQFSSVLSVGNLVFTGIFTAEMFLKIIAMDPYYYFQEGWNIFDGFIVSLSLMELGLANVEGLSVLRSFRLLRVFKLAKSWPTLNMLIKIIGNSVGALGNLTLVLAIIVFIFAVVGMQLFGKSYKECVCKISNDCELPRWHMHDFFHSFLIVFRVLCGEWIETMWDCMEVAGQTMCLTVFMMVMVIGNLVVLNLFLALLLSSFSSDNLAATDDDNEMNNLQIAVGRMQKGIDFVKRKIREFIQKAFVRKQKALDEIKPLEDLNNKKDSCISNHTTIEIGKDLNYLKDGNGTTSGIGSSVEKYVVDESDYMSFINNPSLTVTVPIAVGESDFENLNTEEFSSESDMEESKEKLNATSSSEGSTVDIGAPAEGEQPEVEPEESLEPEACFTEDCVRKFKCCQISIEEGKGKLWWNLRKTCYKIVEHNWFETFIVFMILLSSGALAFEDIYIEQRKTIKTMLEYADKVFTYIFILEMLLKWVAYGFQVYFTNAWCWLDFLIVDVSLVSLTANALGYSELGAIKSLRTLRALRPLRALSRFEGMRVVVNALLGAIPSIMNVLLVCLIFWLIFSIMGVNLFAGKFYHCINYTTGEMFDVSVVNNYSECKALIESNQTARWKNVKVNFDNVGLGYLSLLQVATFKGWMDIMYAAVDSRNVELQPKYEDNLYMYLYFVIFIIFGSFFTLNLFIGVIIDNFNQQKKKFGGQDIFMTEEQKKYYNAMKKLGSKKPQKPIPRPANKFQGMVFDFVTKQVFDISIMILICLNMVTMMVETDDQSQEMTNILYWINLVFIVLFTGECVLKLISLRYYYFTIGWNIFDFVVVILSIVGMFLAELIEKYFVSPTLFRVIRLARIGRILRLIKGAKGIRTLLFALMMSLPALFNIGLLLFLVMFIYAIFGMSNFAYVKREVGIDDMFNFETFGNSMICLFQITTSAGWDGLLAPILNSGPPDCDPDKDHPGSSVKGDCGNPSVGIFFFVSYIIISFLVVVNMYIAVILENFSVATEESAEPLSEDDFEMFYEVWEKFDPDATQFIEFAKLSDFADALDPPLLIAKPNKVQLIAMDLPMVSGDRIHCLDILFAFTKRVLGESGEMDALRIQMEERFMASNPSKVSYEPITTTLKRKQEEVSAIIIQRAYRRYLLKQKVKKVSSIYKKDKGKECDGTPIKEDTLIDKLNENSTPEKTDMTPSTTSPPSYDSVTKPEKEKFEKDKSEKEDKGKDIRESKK

Leu-X2-Ser-Cys-Cys-Ser-Leu-Asn-Leu-X1-Leu-Cys-X2-Val-X2-Ala-Cys-X3-X1-Asn-X2-Cys-Cys-Thr [κM-RIIIK]
activity on Kv4.2 (Kv4.2): no detectable activity | activity on Kv1.3 (Kv1.3): no detectable activity | induction of glibenclamide-sensitive currents [1]: induces glibenclamide-sensitive currents in primary cultures of myocytes in a highly potent manner | protection against hypoxia-induced depolarization [2]: prevents any hypoxia-induced changes in membrane potential; also recorded: strong protective effect; also recorded: confers protection against hypoxia-induced depolarization | activity on herg (herg): no detectable activity | infarct size [3]: reduces the infarct size | hemodynamic effect ([3]; iv): without any hemodynamic effect | effect on blood pressure [4]: no effect | effect on heart rate [4]: no effect | infarct size (isolated rabbit hearts): reduces the infarct size | state dependence of inhibition, open vs closed state affinity [5]: three to four times lower affinity for the open state | IC50 ([5]; read-out: IC50 on Sha1, closed state): 20 nM | IC50 ([5]; read-out: IC50 on Sha1, open state): 60 nM | activity on Kv1.1 (Kv1.1): no detectable activity | protection against hypoxia-induced changes in intracellular calcium [6]: able to provide protection against hypoxia | activity on Kv2.1 (Kv2.1): no detectable activity | effect of F425G Shaker mutation on κM-RIIIK sensitivity (F425G Shaker mutation): decreases κM-RIIIK sensitivity | activity on Kv1.4 (Kv1.4): no detectable activity | activity on Kv3.4 (Kv3.4): no detectable activity | state dependence of inhibition, open vs closed state affinity (Shaker potassium channel): three to four times lower affinity for the open state | IC50 (Shaker potassium channel; read-out: IC50, antagonist of the Shaker potassium channel): ~1200 nM | activity on eag (eag): no detectable activity | activity on Nav1.5 (Nav1.5): no detectable activity | activity on Nav1.2 (Nav1.2): no detectable activity
